Counter-ions that a name gives are not always drawn. Like-named read-outs stand apart in the source and are kept apart here. Where only a bound is given, the exact number is not on record here.

Assay [1] deals with Klebsiella pneumoniae (4508). The assay can be described thus: Acute mouse protection test. The format is in vivo, Klebsiella pneumoniae; female, swiss albino mice. As to conditions: ip, 168 h, read-out: Effective Dose50 (ED50). As to the method:
(§1) The acute mouse protection test is conducted on 10 mice with each of 5 levels of dug. Mouse mortality is used to calculate a ED50 value, i.e., dose of drug required to protect 50% of the test animals.
(§2) The acute mouse protection test is conducted on female, swiss albino mice, 18-20 grams in weight. The mice are injected intraperitoneally with an 18 hour culture of the indicated test organism diluted sufficiently to provide the desired LD50 value. To check potency of the infection a titration of the indicated test organism is carried out in control animals. The treatment group of animals is dosed with the test fortimicin at one and five hours post-infection and observed for seven days. The ED50 values are calculated using the mortality data collected.

In assay [2] the test system is Proteus mirabilis Fin. #9. The assay can be described thus: In vitro antibiotic activity, two-fold dilution test (Mueller-Hinton agar). Conditions: for MIC: read-out: Minimum inhibitory concentration (MIC). The class given is cell-based. As to the method:
(§3) The in vitro antibiotic activities are determined by a two-fold dilution test using Mueller-Hinton agar, 10 ml per Petri plate. The inoculum of approximately 1×10^5 of the indicated test organism is delivered by the Steer's replicator. The test is incubated at 37° C. for 24 hours. Fortimicin A tetrahydrochloride and fortimicin A disulfate are used as the control antibiotics. The minimum inhibitory concentrations (MIC), listed in Table I, are expressed in mcg/ml.

Another assay has as its system Kleb. pneumoniae KY 4262. The assay is described as above. The format is cell-based. As to conditions: for MIC: Klebsiella pneumoniae. As to the method:
as §3

Assay [3] concerns Pseudo. aeruginosa KY 8516. The description is as above. The format is cell-based. Conditions: for MIC: Pseudomonas aeruginosa. On the procedure:
as §3

Another assay deals with Kleb. pneumoniae 10031. The description is as above. The class given is cell-based. As to the method: as §3
The subject of assay [4] is Pseudo. aeruginosa KY 8512. The description is as above. The class given is cell-based. As to conditions: for MIC: Pseudomonas aeruginosa. As to the method:
as §3

Assay [5] deals with Enterobacter aerogenes 13048. The assay is described as above. The class given is cell-based. As to conditions: for MIC: read-out: Minimum inhibitory concentration (MIC). As to the method:
as §3

The subject of a further assay is Psuedo. aeruginosa 27853. The assay is described as above. The format is cell-based. As to the method: as §3
Another assay has as its system E. coli BL 3676 (Res). The description is as above. The class given is cell-based. As to conditions: for MIC: Escherichia coli, read-out: Minimum inhibitory concentration (MIC). On the procedure: as §3
The test system of a further assay is Sal. typhimurium Ed. #9. The description is as above. The class given is cell-based. As to conditions: for MIC: Salmonella enterica, read-out: Minimum inhibitory concentration (MIC). On the procedure: as §3
The test system of a further assay is Strep. faecalis 10541. The assay is described as above. The format is cell-based. Conditions: for MIC: read-out: Minimum inhibitory concentration (MIC). As to the method:
as §3

In the next assay the test system is E. coli Juhl. Described as above. The format is cell-based. As to conditions: for MIC: Escherichia coli, read-out: Minimum inhibitory concentration (MIC). On the procedure: as §3
A further assay relates to Providencia 1577. Described as above. The class given is cell-based. As to conditions: for MIC: read-out: Minimum inhibitory concentration (MIC). On the procedure:
as §3

Another assay relates to Serratis marcescens 4003. The description is as above. The format is cell-based. As to the method: as §3
A further assay concerns Shigella sonnei 9290. The description is as above. Conditions: 37° C.; for Minimum inhibitory concentration (MIC): 24 hours. The format is cell-based. As to the method:
as §3

The test system of the next assay is Staph. aureus Smith. Described as above. The format is cell-based. Conditions: for MIC: Staphylococcus aureus, read-out: Minimum inhibitory concentration (MIC). As to the method:
as §3

The next assay concerns E. coli 76-2. The description is as above. The format is cell-based. On the procedure:
as §3

The next assay concerns Proteus rettigeri U6333. The assay is described as above. The format is cell-based. On the procedure:
as §3

For assay [6], the system named is Pseudo. aeruginosa BMH #10. The description is as above. The format is cell-based. Conditions: for MIC: Pseudomonas aeruginosa, read-out: Minimum inhibitory concentration (MIC). As to the method: as §3
A further assay concerns Psuedo. aeruginosa 209. Described as above. As to conditions: for MIC: read-out: Minimum inhibitory concentration (MIC). The class given is cell-based. On the procedure: as §3
The test system of another assay is Proteus vulgaris JJ. The assay is described as above. The class given is cell-based. Conditions: for MIC: read-out: Minimum inhibitory concentration (MIC). As to the method:
as §3

The subject of the next assay is Escherichia coli (Juhl). The assay can be described thus: Acute mouse protection test. Conditions: ip, 168 h, read-out: Effective Dose50 (ED50). The class given is in vivo, Escherichia coli; female, swiss albino mice. On the procedure:
as §1, §2

In assay [7] the test system is Proteus mirabilis (Fin 9). The assay can be described thus: Acute mouse protection test. The class given is in vivo, Proteus mirabilis; female, swiss albino mice. Conditions: ip, 168 h, read-out: Effective Dose50 (ED50). As to the method: as §1, §2
The mark [8] stands for this setting: Proteus mirabilis Fin. #9, Mueller-Hinton agar, 37° C., 24 hours.
The mark [9] stands for this setting: E. coli BL 3676 (Res), Mueller-Hinton agar, 37° C., 24 hours.
[10] abbreviates: Sal. typhimurium Ed. #9, Mueller-Hinton agar, 37° C., 24 hours.
Where [11] appears, read: E. coli Juhl, Mueller-Hinton agar, 37° C., 24 hours.
[12] abbreviates: Providencia 1577, Mueller-Hinton agar, 37° C., 24 hours.
The mark [13] stands for this setting: Staph. aureus Smith, Mueller-Hinton agar, 37° C., 24 hours.
[14] abbreviates: Pseudo. aeruginosa BMH #10, Mueller-Hinton agar, 37° C., 24 hours.
Where [15] appears, read: Psuedo. aeruginosa 209, Mueller-Hinton agar, 37° C., 24 hours.
[16] abbreviates: Proteus vulgaris JJ, Mueller-Hinton agar, 37° C., 24 hours.

With `COC1CC(N)C(OC2OC(C(C)N)CCC2N)C(O)C1N(C)C(=O)CN` (stereo not drawn) [2-deoxyfortimicin A tetrahydrochloride, 2-Deoxyfortimicin A Tetrahydrochloride], the ED50 – broadly, the midpoint of the dose-response relation – in [1] (Klebsiella pneumoniae (4508) infected intraperitoneally, dosed one and five hours post-infection, observed seven days) was determined as 1.5 mg/kg; with Escherichia coli (Juhl) (Escherichia coli (Juhl) infected intraperitoneally, dosed one and five hours post-infection, observed seven days) it was 4.7 mg/kg; in assay [7] (Proteus mirabilis (Fin 9) infected intraperitoneally, dosed one and five hours post-infection, observed seven days) it was 4.7 mg/kg. Further, the MIC in assay [2] (setting [8]) amounted to 6.2 µg/mL; with Kleb. pneumoniae KY 4262 (KY4262, Kleb. pneumoniae KY 4262, 37° C., 24 hours, read-out: Minimum inhibitory concentration (MIC)) it was 6.2 µg/mL; in [3] (KY8516, Pseudo. aeruginosa KY 8516, 37° C., 24 hours, read-out: Minimum inhibitory concentration (MIC)), 50 µg/mL; with Kleb. pneumoniae 10031 (Klebsiella pneumoniae, Kleb. pneumoniae 10031, 37° C., 24 hours, read-out: Minimum inhibitory concentration (MIC)), 1.56 µg/mL; in [4] (KY8512, Pseudo. aeruginosa KY 8512, 37° C., 24 hours, read-out: Minimum inhibitory concentration (MIC)), 12.5 µg/mL; in [5] (Klebsiella aerogenes, Enterobacter aerogenes 13048, Mueller-Hinton agar, 37° C., 24 hours), 3.1 µg/mL. For the same molecule, the MIC stood at 12.5 µg/mL in the assay with Psuedo. aeruginosa 27853 (Psuedo. aeruginosa 27853, 37° C., 24 hours, read-out: Minimum inhibitory concentration (MIC)); 25 µg/mL in the assay with E. coli BL 3676 (Res) (setting [9]); 1.56 µg/mL in the assay on Sal. typhimurium Ed. #9 (setting [10]); 50 µg/mL with Strep. faecalis 10541 (Enterococcus faecalis, Strep. faecalis 10541, Mueller-Hinton agar, 37° C., 24 hours); 6.2 µg/mL with E. coli Juhl (setting [11]); 3.1 µg/mL in the assay with Providencia 1577 (setting [12]). Besides, the MIC in the assay with Serratis marcescens 4003 (Serratis marcescens 4003, 37° C., 24 hours, read-out: Minimum inhibitory concentration (MIC)) was 3.1 µg/mL; with Shigella sonnei 9290 (Shigella sonnei, 9290, 24 h, read-out: Minimum inhibitory concentration (MIC)), 6.2 µg/mL; in the assay with Staph. aureus Smith (setting [13]), 0.78 µg/mL; in the assay on E. coli 76-2 (Escherichia coli, 762, E. coli 76-2, 37° C., 24 hours, read-out: Minimum inhibitory concentration (MIC)) it was 3.1 µg/mL; in the assay with Proteus rettigeri U6333 (Proteus rettigeri U6333, 37° C., 24 hours, read-out: Minimum inhibitory concentration (MIC)), 25 µg/mL; in assay [6] (setting [14]), 0.78 µg/mL. Besides, the MIC was more than 100 µg/mL in the assay with Psuedo. aeruginosa 209 (setting [15]) and 3.1 µg/mL in the assay on Proteus vulgaris JJ (setting [16]).
`COC1C(O)C(N)C(OC2OC(C(C)N)CCC2N)C(O)C1N(C)C(=O)CN` (stereo not drawn) [Fortimicin A tetrahydrochloride]: the “Minimum inhibitory concentration (MIC)” value in [2] (setting [8]) worked out at 6.2 µg/mL; in the assay on Kleb. pneumoniae KY 4262 (Kleb. pneumoniae KY 4262, 37° C., 24 hours) it was 3.1 µg/mL; in [3] (Pseudo. aeruginosa KY 8516, 37° C., 24 hours), 100 µg/mL; in the assay on Kleb. pneumoniae 10031 (Kleb. pneumoniae 10031, 37° C., 24 hours), 1.56 µg/mL; in assay [4] (Pseudo. aeruginosa KY 8512, 37° C., 24 hours) it was 25 µg/mL; in [5] (Enterobacter aerogenes 13048, Mueller-Hinton agar, 37° C., 24 hours), 3.1 µg/mL. For the same molecule, the “Minimum inhibitory concentration (MIC)” value was 25 µg/mL with Psuedo. aeruginosa 27853 (Psuedo. aeruginosa 27853, 37° C., 24 hours); 25 µg/mL in the assay on E. coli BL 3676 (Res) (setting [9]); 1.56 µg/mL in the assay with Sal. typhimurium Ed. #9 (setting [10]); 50 µg/mL with Strep. faecalis 10541 (Strep. faecalis 10541, Mueller-Hinton agar, 37° C., 24 hours); 6.2 µg/mL in the assay with E. coli Juhl (setting [11]); 3.1 µg/mL with Providencia 1577 (setting [12]). The “Minimum inhibitory concentration (MIC)” value with Serratis marcescens 4003 (Serratis marcescens 4003, 37° C., 24 hours) is 3.1 µg/mL; in the assay with Shigella sonnei 9290, 12.5 µg/mL; in the assay on Staph. aureus Smith (setting [13]) it was 0.78 µg/mL; in the assay with E. coli 76-2 (E. coli 76-2, 37° C., 24 hours) it was 3.1 µg/mL; with Proteus rettigeri U6333 (Proteus rettigeri U6333, 37° C., 24 hours), 25 µg/mL; in [6] (setting [14]), 0.78 µg/mL. In addition, the “Minimum inhibitory concentration (MIC)” value in the assay with Psuedo. aeruginosa 209 (setting [15]) was more than 100 µg/mL; with Proteus vulgaris JJ (setting [16]) it was 6.2 µg/mL.
Turning to `COC1C(O)C(N)C(OC2OC(C(C)N)CCC2N)C(O)C1N(C)C(=O)CN` (stereo not drawn) [Fortimicin A disulfate, fortimicin A disulfate], the ED50 was determined as 2.5 mg/kg in assay [1] (Klebsiella pneumoniae), 4.6 mg/kg with Escherichia coli (Juhl) (Escherichia coli) and 7.5 mg/kg in assay [7] (Proteus mirabilis). Moreover, the MIC in [2] (Proteus mirabilis, 24 h) was 6.2 µg/mL; with Kleb. pneumoniae KY 4262 (KY4262, 24 h, read-out: Minimum inhibitory concentration (MIC), Kleb. pneumoniae KY 4262, 37° C.) it was 6.2 µg/mL; in assay [3] (KY8516, 24 h, read-out: Minimum inhibitory concentration (MIC), Pseudo. aeruginosa KY 8516, 37° C.), 50 µg/mL; in the assay on Kleb. pneumoniae 10031 (Klebsiella pneumoniae, 10031, 24 h, read-out: Minimum inhibitory concentration (MIC), Kleb. pneumoniae 10031, 37° C.), 3.1 µg/mL; in [4] (KY8512, 24 h, read-out: Minimum inhibitory concentration (MIC), Pseudo. aeruginosa KY 8512, 37° C.) it was 12.5 µg/mL; in assay [5] (Klebsiella aerogenes, 13048, 24 h), 3.1 µg/mL. Also, the MIC is 12.5 µg/mL in the assay with Psuedo. aeruginosa 27853 (24 h, read-out: Minimum inhibitory concentration (MIC), Psuedo. aeruginosa 27853, 37° C.); 25 µg/mL in the assay on E. coli BL 3676 (Res) (24 h); 1.56 µg/mL in the assay on Sal. typhimurium Ed. #9 (TYPHIMURIUM, 24 h); 50 µg/mL with Strep. faecalis 10541 (Enterococcus faecalis, 10541, 24 h); 6.2 µg/mL in the assay on E. coli Juhl (24 h); 3.1 µg/mL in the assay on Providencia 1577 (Providencia, 1577, 24 h). Further, the MIC with Serratis marcescens 4003 (24 h, read-out: Minimum inhibitory concentration (MIC), Serratis marcescens 4003, 37° C.) is 1.56 µg/mL; with Staph. aureus Smith (24 h), 0.78 µg/mL; with E. coli 76-2 (Escherichia coli, 762, 24 h, read-out: Minimum inhibitory concentration (MIC), E. coli 76-2, 37° C.), 6.2 µg/mL; with Proteus rettigeri U6333 (24 h, read-out: Minimum inhibitory concentration (MIC), Proteus rettigeri U6333, 37° C.) it was 12.5 µg/mL; in assay [6] (24 h) it was 0.78 µg/mL; in the assay with Psuedo. aeruginosa 209 (24 h), more than 100 µg/mL. The MIC with Proteus vulgaris JJ (Proteus vulgaris, 24 h) worked out at 6.2 µg/mL. In the assay on Shigella sonnei 9290, the “Minimum inhibitory concentration (MIC)” value worked out at 6.2 µg/mL.

The values are drawn from patent US4192867A, “2-Deoxyfortimicin A, 4-N-alkyl and 4-N-acyl-2-deoxyfortimicin B derivatives” (Abbott Laboratories, priority 1977, dated 1980).
